Test results published in US20100267561A1, “HERBICIDAL PYRIDAZINONE DERIVATIVES” (priority 2007, published 2010).

Legend:
Format in all cases: in vivo
[1] = test system: barnyardgrass (Echinochloa crus-galli); experiment: Test A pre-/postemergence plant response
Procedure, shortened: (§1)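 Ratings are visual, 0–100, where 100 means complete control and 0 no effect, taken roughly 10 days after treatment by comparison with untreated controls. Formulation: non-phytotoxic solvent mixture with surfactant.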

[2] = test system: blackgrass (Alopecurus myosuroides); experiment: Test A pre-/postemergence plant response
Procedure, shortened: as §1

[3] = test system: canarygrass (Phalaris minor); experiment: Test A pre-/postemergence plant response
Procedure, shortened: as §1

corn (Zea mays) = experiment: Test A pre-/postemergence plant response
Procedure, shortened: as §1

[4] = test system: giant foxtail (Setaria faberi); experiment: Test A pre-/postemergence plant response
Procedure, shortened: as §1

[5] = test system: large crabgrass (Digitaria sanguinalis); experiment: Test A pre-/postemergence plant response
Procedure, shortened: as §1

[6] = test system: pigweed (Amaranthus retroflexus); experiment: Test A pre-/postemergence plant response
Procedure, shortened: as §1

[7] = test system: wheat (Triticum aestivum); experiment: Test A pre-/postemergence plant response
Procedure, shortened: as §1

[8] = test system: barnyardgrass (Echinochloa crus-galli); experiment: Test B flooded paddy test plant response
Procedure, shortened: (§2)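 Step one: raise plants to 2 leaves. Step two: flood pots 3 cm over the soil and apply compound into the water, keeping this depth. Step three: after 13–15 greenhouse days, score visually versus controls, 0–100, where 100 means complete control.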

[9] = test system: ducksalad (Heteranthera limosa); experiment: Test B flooded paddy test plant response
Procedure, shortened: as §2

rice (Oryza sativa) = experiment: Test B flooded paddy test plant response
Procedure, shortened: as §2

[10] = test system: umbrella sedge (Cyperus difformis); experiment: Test B flooded paddy test plant response
Procedure, shortened: as §2

[11] = Postemergence, 31 g ai/ha, 0 to 100 scale (0 no effect, 100 complete control)
[12] = Postemergence, 125 g ai/ha, 0 to 100 scale, 0 no effect, 100 complete control
[13] = Preemergence, 31 g ai/ha, 0 to 100 scale, 0 is no effect, 100 is complete control
[14] = Preemergence, 125 g ai/ha, 0 to 100 scale (0 no effect, 100 complete control)
[15] = Flood (flooded paddy test), 250 g ai/ha, scale 0 to 100, 0 no effect, 100 complete control
[16] = Flood, 62 g ai/ha, scale 0 to 100

Cc1cn(-c2ccc(Cl)cn2)nc1-c1c(O)cnn(C)c1=O [Compound 84]
Plant response rating, Barnyardgrass [1, 11]: 0 | Plant response rating, Barnyardgrass [1, 12]: 0 | Plant response rating, Barnyardgrass [1, 13]: 0 | Plant response rating, Barnyardgrass [1, 14]: 0 | Plant response rating, Blackgrass [2, 11]: 0 | Plant response rating, Blackgrass [2, 12]: 0 | Plant response rating, Blackgrass [2, 13]: 0 | Plant response rating, Blackgrass [2, 14]: 0 | Plant response rating, Canarygrass [3, 11]: 0 | Plant response rating, Canarygrass [3, 12]: 0 | Plant response rating, Canarygrass [3, 13]: 0 | Plant response rating, Canarygrass [3, 14]: 0 | Plant response rating, Corn (corn (Zea mays); [11]): 0 | Plant response rating, Corn (corn (Zea mays); [12]): 0 | Plant response rating, Corn (corn (Zea mays); [13]): 0 | Plant response rating, Corn (corn (Zea mays); [14]): 0 | Plant response rating, Foxtail, Giant [4, 11]: 0 | Plant response rating, Foxtail, Giant [4, 12]: 10 | Plant response rating, Foxtail, Giant [4, 13]: 0 | Plant response rating, Foxtail, Giant [4, 14]: 0 | Plant response rating, Crabgrass, Large [5, 11]: 0 | Plant response rating, Crabgrass, Large [5, 12]: 10 | Plant response rating, Crabgrass, Large [5, 13]: 0 | Plant response rating, Crabgrass, Large [5, 14]: 0 | Plant response rating, Pigweed [6, 11]: 0 | Plant response rating, Pigweed [6, 12]: 0 | Plant response rating, Pigweed [6, 13]: 0 | Plant response rating, Pigweed [6, 14]: 0 | Plant response rating, Wheat [7, 11]: 0 | Plant response rating, Wheat [7, 12]: 0 | Plant response rating, Wheat [7, 13]: 0 | Plant response rating, Wheat [7, 14]: 0 | Plant response rating, Barnyardgrass [8, 15]: 0 | Plant response rating, Barnyardgrass [8, 16]: 0 | Plant response rating, Ducksalad [9, 15]: 0 | Plant response rating, Ducksalad [9, 16]: 0 | Plant response rating, Rice (rice (Oryza sativa); [15]): 0 | Plant response rating, Rice (rice (Oryza sativa); [16]): 0 | Plant response rating, Sedge, Umbrella [10, 15]: 0 | Plant response rating, Sedge, Umbrella [10, 16]: 0
